Test results published in patent publication US4652636A, “Pentene-diphenyl-diglucoside containing compound” (priority 1982, dated 1987).

Columns and labels:
Mouse = assay: Acute toxicity evaluation of (I), mouse; format: in vivo; settings: for Mortality (Range %): dead/treated
Protocol: (§1) Solutions of (I) in distilled water were prepared with the required concentration. Administered volumes were kept constant at the rate of 10 cm^3 per kg. In each case equal numbers of males and females were treated with a single dose. All animals were observed over 7 days for signs of toxic and/or pharmaco-dynamic effects.
(§2) A necropsy was performed on all surviving animals.

[1] = Acute toxicity evaluation of (I), mouse; format: in vivo; settings: in vivo, ip, mouse, intraperitoneal, dead/treated (range %)
Protocol: as §1, §2

pregnant mouse foeti = assay: Foetotoxic-teratogenic effect of (I) in pregnant mice; format: in vivo, mouse (Swiss Webster); settings: for No of foeti / No of implantation sites / No of live foeti / No of malformations: 6 mice
Protocol: Two groups of six fully impregnated mice (Swiss Webster offspring) were treated orally with aqueous solutions of (I) once per day (10 ml/kg) starting day 1 through to day 8 of the gestation period. On day 20 of the pregnancies the mice were lightly anaethetised with diethyl ether and the uterus exposed by caesarian section. The total number of implantation sites were counted. All foeti were removed and examined for
(b) macroscopic gross anatomical abnormalities of limbs and head.

[2] = test system: Human foetal foreskin fibroblasts--HFSF; assay: In vitro cytostatic cytotoxic effects, HFSF (non-malignant); format: cell-based; settings: I 40 ng, 37° C.
Protocol: (§3) "In vitro" cytostatic cytotoxic effects with Hypoxis rooperi extracts (example 2(e)(i)) and Compound I Four different cell culture types were used:
iv. Human foetal foreskin fibroblasts--HFSF (non-malignant)
(§4) Procedure: Trypsinized cells were harvested into MEM and suitably diluted to supply about 2×10^5 cells per cm^3. A culture flask containing 4,5 cm^3 of culture medium was seeded with 0.5 cm^3 of the prepared cell suspension. This cell culture was then incubated at 37° C. for 24 hours before the test substances dissolved in 0.5 cm^3 of the culture medium were added.

Mouse sarcoma--Ms 52 B = assay: In vitro cytostatic cytotoxic effects, MS 52 B; format: cell-based; settings: I 40 ng, 37° C.
Protocol: as §3
i. Mouse sarcoma--Ms 52 B
as §4

Heha 229 = assay: In vitro cytostatic cytotoxic effects, Heha 229; format: cell-based; settings: Heha 229, I 40 ng, 37° C.
Protocol: as §3, §4

Rabbits = assay: Acute toxicity evaluation of (I), rabbits; format: in vivo, rabbit; settings: intravenous; for Mortality (Range %): dead/treated
Protocol: as §1, §2

Mouse melacoma--Mel B1-6 = assay: In vitro cytostatic cytotoxic effects, Mel B1-6; format: cell-based; settings: Mel B1-6, I 40 ng, 37° C.
Protocol: as §3
ii. Mouse melacoma--Mel B1-6
as §4

**Q.** Which results are given for `OC[C@H]1O[C@@H](Oc2ccc(C#CC/C=C/c3ccc(O[C@@H]4O[C@H](CO)[C@@H](O)[C@H](O)[C@H]4O)c(O)c3)cc2O)[C@H](O)[C@@H](O)[C@@H]1O` [Compound I]?
**A.** direct toxic effects (conclusion) (Mouse; acute toxicity, single dose): low degree of direct toxic effects; Mortality (Range %) (Mouse; mouse, intraperitoneal, 250 mg/kg): 0/10; Mortality (Range %) (Mouse; mouse, intraperitoneal, 500 mg/kg): 0/20; Remarks: signs of discomfort (Mouse; mouse, intraperitoneal, all animals, increasing with dose): discomfort; Mortality (Range %) (Mouse; mouse, oral, 1000 mg/kg): 0/20; Mortality (Range %) (Mouse; mouse, oral, 2000 mg/kg): 0/20; Mortality (Range %) (Mouse; mouse, oral, 4000 mg/kg): 0/20; Remarks: macroscopic lesions (Mouse; mouse, oral, 1000-4000 mg/kg, any animal): No macroscopic; macroscopic lesions on necropsy (Mouse; surviving animals): No macroscopic lesions were observed; mortality at 168 h ([1]; 1000 mg/kg): 16.7%; mortality at 168 h ([1]; 2000 mg/kg): 90%; No of foeti (pregnant mouse foeti; 20 mg/kg oral): 52; No of implantation sites (pregnant mouse foeti; 20 mg/kg oral): 58; No of live foeti (pregnant mouse foeti; 20 mg/kg oral): 50; No of malformations (pregnant mouse foeti; 20 mg/kg oral): 0; No of foeti (pregnant mouse foeti; 100 mg/kg oral): 49; No of implantation sites (pregnant mouse foeti; 100 mg/kg oral): 58; No of live foeti (pregnant mouse foeti; 100 mg/kg oral): 45; No of malformations (pregnant mouse foeti; 100 mg/kg oral): 3 (2?); abnormally reduced growth rate of the foeti (pregnant mouse foeti; any of the treated groups): no indications of abnormally reduced growth rate of the foeti; teratogenic effects (pregnant mouse foeti; at the doses administered): unlikely; adverse effects in the treated mother animals (pregnant mouse foeti; treated mother animals): No adverse effects were detected; Confluency ([2]; 24 hours): 40%; Confluency ([2]; 48 hours): 50%; Confluency ([2]; 72 hours): 50%; Confluency ([2]; 96 hours): 40%; Confluency (Mouse sarcoma--Ms 52 B; 24 hours): 40%; Confluency (Mouse sarcoma--Ms 52 B; 48 hours): 20%; Confluency (Mouse sarcoma--Ms 52 B; 72 hours): 20%; Confluency (Mouse sarcoma--Ms 52 B; 96 hours): 20%; Confluency (Heha 229; 24 hours): 50%; Confluency (Heha 229; 48 hours): 60%; Confluency (Heha 229; 72 hours): 50%; Confluency (Heha 229; 96 hours): 30%; Mortality (Range %) (Rabbits; 50 mg/kg): 0/2; Mortality (Range %) (Rabbits; 100 mg/kg): 0/2; Remarks: macroscopic lesions (Rabbits; 50 and 100 mg/kg): no macropscopic; Remarks: thrombophlebitis at the injection site (Rabbits; 50 and 100 mg/kg): No thrombophlebitis; Remarks: visible effects (Rabbits; 50 and 100 mg/kg): No visible effects; Confluency (Mouse melacoma--Mel B1-6; 24 hours): 40%; Confluency (Mouse melacoma--Mel B1-6; 48 hours): 30%; Confluency (Mouse melacoma--Mel B1-6; 72 hours): 40%; Confluency (Mouse melacoma--Mel B1-6; 96 hours): 40%; Confluency (Mouse melacoma--Mel B1-6; 120 hours): 30%
